Experiments:
[1] = target: T1, 3-hydroxy-3-methylglutaryl-coenzyme A reductase (Homo sapiens, UniProt P04035); experiment: Inhibitory concentration against HMG-CoA reductase
T1 sequence (P04035 whole entry): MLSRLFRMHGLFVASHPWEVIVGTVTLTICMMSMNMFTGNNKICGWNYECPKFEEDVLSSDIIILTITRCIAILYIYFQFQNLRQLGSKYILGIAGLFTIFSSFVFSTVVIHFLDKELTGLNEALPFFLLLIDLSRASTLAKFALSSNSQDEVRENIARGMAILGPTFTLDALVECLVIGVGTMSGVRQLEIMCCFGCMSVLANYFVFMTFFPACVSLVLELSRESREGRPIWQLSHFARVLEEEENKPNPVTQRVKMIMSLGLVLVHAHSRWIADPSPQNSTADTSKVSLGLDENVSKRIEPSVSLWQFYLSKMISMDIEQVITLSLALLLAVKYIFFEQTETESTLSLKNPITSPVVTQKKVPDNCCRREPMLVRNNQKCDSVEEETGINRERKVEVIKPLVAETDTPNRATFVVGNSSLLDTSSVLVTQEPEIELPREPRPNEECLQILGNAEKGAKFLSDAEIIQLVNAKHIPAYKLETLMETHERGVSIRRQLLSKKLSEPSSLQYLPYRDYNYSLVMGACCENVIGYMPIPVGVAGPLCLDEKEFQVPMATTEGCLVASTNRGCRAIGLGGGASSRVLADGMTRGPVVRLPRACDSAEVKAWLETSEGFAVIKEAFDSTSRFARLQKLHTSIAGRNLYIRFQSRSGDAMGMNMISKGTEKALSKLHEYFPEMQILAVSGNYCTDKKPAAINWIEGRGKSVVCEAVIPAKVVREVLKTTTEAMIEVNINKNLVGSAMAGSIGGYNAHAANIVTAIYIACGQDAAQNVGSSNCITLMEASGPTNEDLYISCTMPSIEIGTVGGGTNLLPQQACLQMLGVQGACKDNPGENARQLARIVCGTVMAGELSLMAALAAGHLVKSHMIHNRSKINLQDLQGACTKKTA

[2] = target: T1, 3-hydroxy-3-methylglutaryl-coenzyme A reductase; experiment: Inhibitory constant against HMG-CoA reductase
[3] = target: T1, 3-hydroxy-3-methylglutaryl-coenzyme A reductase; experiment: Inhibitory constant against HMG-CoA reductase with alpha asarone

| SMILES | IC50 [1] [nM] | Ki [2] [nM] | Ki [3] [nM] |
| --- | --- | --- | --- |
| CC(C)c1nc(N(C)S(C)(=O)=O)nc(-c2ccc(F)cc2)c1/C=C/[C@@H](O)C[C@@H](O)CC(=O)O [ROSUVASTATIN] | 5.4 | 0.9 | 71000 |
| CC(O)(CC(=O)O)CC(=O)O [MEGLUTOL] | 4000 | 23.5 | – |

Source: ChEMBL document CHEMBL1141986, “Molecular docking of the highly hypolipidemic agent alpha-asarone with the catalytic portion of HMG-CoA reductase” (Bioorg Med Chem Lett, 2005)
